Experimental data taken from US20250051762A1, “PLATFORM USING DNA-ENCODED SMALL MOLECULE LIBRARIES AND RNA SELECTION TO DESIGN SMALL MOLECULES THAT TARGET RNA” (University of Florida Research Foundation, Incorporated, priority 2021, published 2025).

Experiments:
3×3 ILL = test: 2DCS selection of microarray-immobilized compounds with 32P-labeled 3×3 ILL, Hit-StARTS analysis of RNA-seq; type: binding; conditions: Zobs >4
Procedure: The interaction landscape for the ten representative DEL compounds emerging from the FACS screen were then defined by 2DCS (22). In 2DCS, small molecules are site-specifically conjugated to a microarray surface and then probed for binding to an RNA library under highly stringent conditions (FIGS. 2-B & S6). That is, the array is co-incubated with a radioactively labeled RNA library and an excess of competitor oligonucleotides that mimic regions common to all library members. […] To enable site-specific immobilization of compounds 1-10, a C-terminal alkyne handle was installed for CuAAC click (30) coupling to azide-displaying array surfaces. Installation of the alkyne was accomplished by coupling of bromoacetic acid onto rink amide resin followed by nucleophilic displacement with propargylamine prior to the synthesis of the SPDEL compounds (FIG. 2A).
All ten compounds bound to the 3×3 ILL under the highly stringent conditions described above, almost all dose-dependently (FIG. 2B). The RNAs bound to each small molecule were harvested, reverse transcribed into DNA, and sequenced by RNA-seq. The resulting data set was statistically analyzed by using High Throughput Structure-Activity Relationships Through Sequencing (Hit-StARTS) (31) in which the relative frequency of each selected RNA is compared to the frequency of that RNA in the starting library (pooled population comparison). (31) The statistical significance of the enrichment of selected RNAs is quantified by Zobs, which correlates with affinity and selectivity. (31) Here, a cut-off of Zobs >4 was employed, which was empirically determined from measured affinities via evaluation of compound 9 binding with potential RNA motifs extracted from the 2DCS (FIGS. 2-B, 13, & 14). […] This cut-off afforded, on average, 60±40 (range: 6-155) preferred, or privileged, RNA 3D folds for each compound. Compound 6 bound to largest number of RNA targets (n=155) while compound 9 bound the fewest (n=6) (FIG. 14). […]

[1] = system: MCF-10a cells that express WT pri-miR-27a; test: Migration of MCF-10a cells expressing WT pri-miR-27a; type: cell-based, human
Procedure: MCF-10a cells were transfected with plasmids to express pri-miR-27a and mutant pri-miR-27a in 12- or 24-well plates with Lipofectamine 2000 per the manufacturer's protocol. For treatment of compounds, stocks were diluted in growth medium and added to cells for 48 h. The miRCURY miR-27a LNA inhibitor (QIAGEN, Cat #339121) was used as a positive control by diluting in growth medium to a final concentration of 1 nM. The miRCURY LNA Negative Control (QIAGEN, Cat #YI00199007-DDA) was used as a negative control, which has also diluted in growth medium to a final concentration of 1 nM.
Migration assay: MDA-MB-231 cells were grown in 60 mm diameter dishes and treated as described in “Cell culture and compound treatment” for 12 h. The medium was then removed and replaced with growth medium lacking FBS but with the same concentration of compound. After 12 h of serum starvation, the cells were detached and seeded to ThinCert™ (GBO) 24-well hanging inserts with 8 μm pores (˜5×10^4 cells per insert). Fresh growth medium with FBS was dispended in a 24-well plate (600 μL each well), and the ThinCert™ hanging inserts containing cells were then placed into the wells. After incubating for 24 h, the growth medium in the inserts was removed, and the remaining cells were washed twice with 1×DPBS. […] The remaining cells were then imaged by microscopy and counted for quantification (3 fields of view per sample).

Structure (SMILES): C#CCN(CC(N)=O)C(=O)C[C@H](Cc1c[nH]c2ccccc12)NC(=O)[C@@H]1C[C@H](NC(=O)Cn2c(=O)[nH]c3ccccc3c2=O)CN1 [Compound 9]
- number of RNA motifs bound that are unique to the compound (3×3 ILL): 2
- migration [1]: reduced migration
